Measured values from patent publication US20240408086A1, “USE OF LUVADAXISTAT FOR THE TREATMENT OF COGNITIVE IMPAIRMENT” (TAKEDA PHARMACEUTICAL COMPANY LIMITED, priority 2021, published 2024).

Tested on: adult patients with persistent negative symptoms of schizophrenia
Format: in vivo, human
Text: To assess changes in cognitive impairment associated with schizophrenia (CIAS), secondary endpoints included the 12-week change from baseline in the Brief Assessment of Cognition in Schizophrenia (BACS) composite score, a measure of cognition across multiple domains, and the Schizophrenia Cognition Rating Scale (SCORS) score, a measure of day-to-day cognitive functioning requiring input from an adult informant. Secondary endpoints were not corrected for multiplicity.
The BACS is specifically designed to measure treatment-related improvements in cognition and includes alternate forms. BACS is a reliable and sensitive measure of cognitive function in schizophrenia. The BACS is a cognition assessment battery that assesses 6 domains of cognitive function found to be consistently impaired in schizophrenia: verbal memory; working memory; motor speed; attention; executive functions; and verbal fluency. The primary measure from each test of the BACS is standardized by creating T-scores whereby the mean of the test session of a matched reference healthy participant is set to 50 and the standard deviation set to 10.

[1] = 500 mg once daily, preliminary analysis

O=c1[nH]nc(CCc2ccc(C(F)(F)F)cc2)cc1O [Compound (I), luvadaxistat]
BACS Composite Score, Week 6, Mean (SD) [1]: 35.6 (13.84) | BACS Composite Score, Week 6, Median [1]: 38.0 | BACS Composite Score, Week 12, Mean (SD) [1]: 37.6 (13.86) | BACS Composite Score, Week 12, Median [1]: 40.0 | BACS Motor Speed Cognition Domain, Change from Baseline to Week 6, Mean (SD) [1]: 0.5 (9.53) | BACS Motor Speed Cognition Domain, Change from Baseline to Week 6, Median [1]: 2.0 | BACS Motor Speed Cognition Domain, Change from Baseline to Week 12, Mean (SD) [1]: 2.0 (6.58) | BACS Motor Speed Cognition Domain, Change from Baseline to Week 12, Median [1]: 2.0 | BACS Motor Speed Cognition Domain, Week 6, Mean (SD) [1]: 40.7 (12.38) | BACS Motor Speed Cognition Domain, Week 6, Median [1]: 41.0 | BACS Motor Speed Cognition Domain, Week 12, Mean (SD) [1]: 41.3 (11.31) | BACS Motor Speed Cognition Domain, Week 12, Median [1]: 40.0 | BACS Verbal Memory Cognition Domain, Change from Baseline to Week 6, Mean (SD) [1]: 1.8 (8.65) | BACS Verbal Memory Cognition Domain, Change from Baseline to Week 6, Median [1]: 2.0 | BACS Verbal Memory Cognition Domain, Change from Baseline to Week 12, Mean (SD) [1]: 1.6 (10.04) | BACS Verbal Memory Cognition Domain, Change from Baseline to Week 12, Median [1]: 0.0 | BACS Verbal Memory Cognition Domain, Week 6, Mean (SD) [1]: 42.1 (12.06) | BACS Verbal Memory Cognition Domain, Week 6, Median [1]: 42.0 | BACS Verbal Memory Cognition Domain, Week 12, Mean (SD) [1]: 41.8 (13.82) | BACS Verbal Memory Cognition Domain, Week 12, Median [1]: 41.0 | BACS Working Memory Cognition Domain, Change from Baseline to Week 6, Mean (SD) [1]: 0.5 (7.99) | BACS Working Memory Cognition Domain, Change from Baseline to Week 6, Median [1]: 0.0 | BACS Working Memory Cognition Domain, Change from Baseline to Week 12, Mean (SD) [1]: 1.7 (7.39) | BACS Working Memory Cognition Domain, Change from Baseline to Week 12, Median [1]: 0.0 | BACS Working Memory Cognition Domain, Week 6, Mean (SD) [1]: 40.1 (13.75) | BACS Working Memory Cognition Domain, Week 6, Median [1]: 43.0 | BACS Working Memory Cognition Domain, Week 12, Mean (SD) [1]: 42.6 (13.20) | BACS Working Memory Cognition Domain, Week 12, Median [1]: 45.0 | BACS Attention Cognition Domain, Change from Baseline to Week 6, Mean (SD) (500 mg, Week 6): 0.9 (6.26) | BACS Attention Cognition Domain, Change from Baseline to Week 6, Median (500 mg, Week 6): 0.0 | BACS Attention Cognition Domain, Week 6, Mean (SD) (500 mg, Week 6): 35.5 (12.68) | BACS Attention Cognition Domain, Week 6, Median (500 mg, Week 6): 35.0 | BACS Executive Functions Cognition Domain, Change from Baseline to Week 6, Mean (SD) (500 mg, Week 6): 1.3 (7.62) | BACS Executive Functions Cognition Domain, Change from Baseline to Week 6, Median (500 mg, Week 6): 0.0 | BACS Executive Functions Cognition Domain, Week 6, Mean (SD) (500 mg, Week 6): 47.0 (10.95) | BACS Executive Functions Cognition Domain, Week 6, Median (500 mg, Week 6): 51.0 | BACS Verbal Fluency Cognition Domain, Change from Baseline to Week 6, Mean (SD) (500 mg, Week 6): 0.8 (5.87) | BACS Verbal Fluency Cognition Domain, Change from Baseline to Week 6, Median (500 mg, Week 6): 1.0 | BACS Verbal Fluency Cognition Domain, Week 6, Mean (SD) (500 mg, Week 6): 39.6 (10.14) | BACS Verbal Fluency Cognition Domain, Week 6, Median (500 mg, Week 6): 40.0 | BACS Attention Cognition Domain, Adjusted Change from Baseline to Week 6, LS Mean (SE) (500 mg, Week 6, MMRM): 1.0 (0.96) | BACS Attention Cognition Domain, Difference from Placebo for Week 6, LS Mean (SE) (500 mg, Week 6, MMRM): 0.0 (1.15) | BACS Executive Functions Cognition Domain, Adjusted Change from Baseline to Week 6, LS Mean (SE) (500 mg, Week 6, MMRM): 1.1 (1.29) | BACS Executive Functions Cognition Domain, Difference from Placebo for Week 6, LS Mean (SE) (500 mg, Week 6, MMRM): 2.3 (1.57) | BACS Verbal Fluency Cognition Domain, Adjusted Change from Baseline to Week 6, LS Mean (SE) (500 mg, Week 6, MMRM): 0.5 (0.74) | BACS Verbal Fluency Cognition Domain, Difference from Placebo for Week 6, LS Mean (SE) (500 mg, Week 6, MMRM): 0.3 (0.89) | BACS Attention Cognition Domain, Change from Baseline to Week 12, Mean (SD) (500 mg, Week 12): 3.1 (9.31) | BACS Attention Cognition Domain, Change from Baseline to Week 12, Median (500 mg, Week 12): 2.0 | BACS Attention Cognition Domain, Week 12, Mean (SD) (500 mg, Week 12): 38.0 (14.08) | BACS Attention Cognition Domain, Week 12, Median (500 mg, Week 12): 36.0 | BACS Executive Functions Cognition Domain, Change from Baseline to Week 12, Mean (SD) (500 mg, Week 12): 2.0 (9.28) | BACS Executive Functions Cognition Domain, Change from Baseline to Week 12, Median (500 mg, Week 12): 0.0 | BACS Executive Functions Cognition Domain, Week 12, Mean (SD) (500 mg, Week 12): 48.5 (11.88) | BACS Executive Functions Cognition Domain, Week 12, Median (500 mg, Week 12): 51.0 | BACS Verbal Fluency Cognition Domain, Change from Baseline to Week 12, Mean (SD) (500 mg, Week 12): 1.3 (6.95) | BACS Verbal Fluency Cognition Domain, Change from Baseline to Week 12, Median (500 mg, Week 12): 0.0 | BACS Verbal Fluency Cognition Domain, Week 12, Mean (SD) (500 mg, Week 12): 40.6 (10.30) | BACS Verbal Fluency Cognition Domain, Week 12, Median (500 mg, Week 12): 40.0 | BACS Attention Cognition Domain, Adjusted Change from Baseline to Week 12, LS Mean (SE) (500 mg, Week 12, MMRM): 3.1 (1.09) | BACS Attention Cognition Domain, Difference from Placebo for Week 12, LS Mean (SE) (500 mg, Week 12, MMRM): 1.2 (1.33) | BACS Executive Functions Cognition Domain, Adjusted Change from Baseline to Week 12, LS Mean (SE) (500 mg, Week 12, MMRM): 2.0 (1.19) | BACS Executive Functions Cognition Domain, Difference from Placebo for Week 12, LS Mean (SE) (500 mg, Week 12, MMRM): 1.4 (1.42) | BACS Verbal Fluency Cognition Domain, Adjusted Change from Baseline to Week 12, LS Mean (SE) (500 mg, Week 12, MMRM): 0.5 (0.91) | BACS Verbal Fluency Cognition Domain, Difference from Placebo for Week 12, LS Mean (SE) (500 mg, Week 12, MMRM): −0.5 (1.11)
